Data as given in US20230382911A1 (Hoffmann-La Roche Inc., priority 2021, published 2023).
pIC50: −log10 of the molar value.

These molecules were tested against Recombinant human Mat2a (Homo sapiens (Human), UniProt P31153) (assay: Determination of Mat2A activity: 384 well format absorbance-based Mat2A inhibition assay). Conditions: 12.5 nM Mat2A, 100 μM ATP and Methionine, 2% DMSO, 120 minutes at RT, Biomol Green, absorbance at 635 nm.
Type: biochemical
Experimental: Determination of Mat2A Activity
Measurement of Mat2A inhibition is performed in 384 well format absorbance-based assay.
Recombinant human Mat2a (12.5 nM) and serial diluted compounds in DMSO (range of concentrations from 10 μM to […]) or controls (DMSO) are incubated for 15 minutes at room temperature (RT) in assay buffer containing 50 mM HEPES pH 7.5, 50 mM KCl, 50 mM MgCl2, 0.01% Tween 20 and 10 mM DTT. The reaction is initiated by the addition of the combined substrates ATP and Methionine, each at a final concentration of 100 μM. Final assay condition are 12.5 nM Mat2A, 100 μM ATP and Methionine Substrates and 2% DMSO. After 120 minutes of incubation at RT, the reaction is stopped by the addition of Biomol Green. The absorbance signal is measured at λ=635 nm with a multiplate reader (BMG Pherastar reader or equivalent) after 30 min of equilibration at RT.

Recombinant human Mat2a, sequence (P31153 whole entry): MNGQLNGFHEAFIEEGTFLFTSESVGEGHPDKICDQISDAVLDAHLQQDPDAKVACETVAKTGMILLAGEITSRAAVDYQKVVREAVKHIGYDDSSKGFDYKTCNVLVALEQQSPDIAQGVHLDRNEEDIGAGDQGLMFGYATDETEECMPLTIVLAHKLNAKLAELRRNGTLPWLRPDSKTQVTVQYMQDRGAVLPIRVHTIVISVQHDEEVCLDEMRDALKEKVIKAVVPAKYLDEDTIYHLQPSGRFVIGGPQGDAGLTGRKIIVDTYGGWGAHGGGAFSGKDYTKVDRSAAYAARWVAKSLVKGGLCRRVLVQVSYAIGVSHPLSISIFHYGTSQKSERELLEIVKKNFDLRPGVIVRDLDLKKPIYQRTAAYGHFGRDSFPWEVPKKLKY

SMILES | pIC50
COc1ccccc1C(=O)n1nc(N)c2ccc(-c3ccccc3)nc21 [Example 1, (3-amino-6-phenyl-1H-pyrazolo[3,4-b]pyridin-1-yl)(2-methoxyphenyl)methanone] | 7.04
COc1ccccc1C(=O)n1nc(N)c2ccc(CC(C)C)nc21 [Example 2, (3-amino-6-isobutyl-1H-pyrazolo[3,4-b]pyridin-1-yl)(2-methoxyphenyl)methanone] | 6.96
COc1ccccc1C(=O)n1nc(N)c2ccc(N3CCCC3)nc21 [Example 3, (3-amino-6-(pyrrolidin-1-yl)-1H-pyrazolo[3,4-b]pyridin-1-yl)(2-methoxyphenyl)methanone] | 7.28
Nc1nn(C(=O)c2ccccc2Cl)c2nc(N3CCCC3)ccc12 [Example 4, (3-amino-6-(pyrrolidin-1-yl)-1H-pyrazolo[3,4-b]pyridin-1-yl)(2-chlorophenyl)methanone] | 6.85
Cc1ccccc1C(=O)n1nc(N)c2ccc(N3CCCC3)nc21 [Example 5, (3-amino-6-(pyrrolidin-1-yl)-1H-pyrazolo[3,4-b]pyridin-1-yl)(o-tolyl)methanone] | 7.03
COc1ccccc1C(=O)n1nc(N)c2ccc(C3=CCCCC3)nc21 [Example 6, [3-amino-6-(cyclohexen-1-yl)pyrazolo[3,4-b]pyridin-1-yl]-(2-methoxyphenyl)methanone] | 6.96
COc1ccccc1C(=O)n1nc(N)c2ccc(C3CC3)nc21 [Example 7, (3-amino-6-cyclopropylpyrazolo[3,4-b]pyridin-1-yl)-(2-methoxyphenyl)methanone] | 6.92
COc1ccccc1C(=O)n1nc(N)c2cc(Cl)c(C3CC3)nc21 [Example 8, (3-amino-5-chloro-6-cyclopropyl-1H-pyrazolo[3,4-b]pyridin-1-yl)(2-methoxyphenyl)methanone] | 7.25
Cc1ccccc1C(=O)n1nc(N)c2cc(Cl)c(C3CC3)nc21 [Example 9] | 6.41
COc1ccccc1C(=O)n1nc(N)c2cc(F)c(-c3ccccc3)nc21 [Example 10, (3-amino-5-fluoro-6-phenyl-1H-pyrazolo[3,4-b]pyridin-1-yl)(2-methoxyphenyl)methanone] | 6.55
Nc1nn(C(=O)c2ccccc2Cl)c2nc(N3CCCC3)c(F)cc12 [Example 12, (3-amino-5-fluoro-6-(pyrrolidin-1-yl)-1H-pyrazolo[3,4-b]pyridin-1-yl)(2-chlorophenyl)methanone] | 6.85
Cc1ccccc1C(=O)n1nc(N)c2cc(F)c(N3CCCC3)nc21 [Example 13, (3-amino-5-fluoro-6-(pyrrolidin-1-yl)-1H-pyrazolo[3,4-b]pyridin-1-yl)(o-tolyl)methanone] | 6.96
COc1ccccc1C(=O)n1nc(N)c2cc(F)c(N3CC(F)(F)C3)nc21 [Example 14, (3-amino-6-(3,3-difluoroazetidin-1-yl)-5-fluoro-1H-pyrazolo[3,4-b]pyridin-1-yl)(2-methoxyphenyl)methanone] | 7.02
COc1ccccc1C(=O)n1nc(N)c2ccc(C(C)(C)C)nc21 [Example 15, (3-amino-6-(tert-butyl)-1H-pyrazolo[3,4-b]pyridin-1-yl)(2-methoxyphenyl)methanone] | 7.00
COc1ccccc1C(=O)n1nc(N)c2cnc(N3CCCC3)nc21 [Example 16, (3-amino-6-(pyrrolidin-1-yl)-1H-pyrazolo[3,4-d]pyrimidin-1-yl)(2-methoxyphenyl)methanone] | 7.19
Cc1ccccc1C(=O)n1nc(N)c2cnc(N3CCCC3)nc21 [Example 17, (3-amino-6-(pyrrolidin-1-yl)-1H-pyrazolo[3,4-d]pyrimidin-1-yl)(o-tolyl)methanone] | 6.55
Nc1nn(C(=O)c2ccccc2Cl)c2nc(N3CCCC3)ncc12 [Example 18, (3-amino-6-(pyrrolidin-1-yl)-1H-pyrazolo[3,4-d]pyrimidin-1-yl)(2-chlorophenyl)methanone] | 6.46
Nc1nn(C(=O)c2cccc3c2OCO3)c2nc(C3CC3)ccc12 [Example 19, (3-amino-6-cyclopropylpyrazolo[3,4-b]pyridin-1-yl)-(1,3-benzodioxol-4-yl)methanone] | 6.39
Cc1ccccc1C(=O)n1nc(N)c2ccc(C3CC3)nc21 [Example 20, (3-amino-6-cyclopropylpyrazolo[3,4-b]pyridin-1-yl)-(2-methylphenyl)methanone] | 6.80
COc1ccccc1C(=O)n1nc(N)c2cc3c(nc21)CC(C)(C)CC3 [Example 21, (3-amino-7,7-dimethyl-5,6,7,8-tetrahydro-1H-pyrazolo[3,4-b]quinolin-1-yl)(2-methoxyphenyl)methanone] | 6.85
COc1ccccc1C(=O)n1nc(N)c2ccc(C3=CCCCO3)nc21 [Example 22, [3-amino-6-(3,4-dihydro-2H-pyran-6-yl)pyrazolo[3,4-b]pyridin-1-yl]-(2-methoxyphenyl)methanone] | 6.36
COc1ccccc1C(=O)n1nc(N)c2ccc(C3=CCCC3)nc21 [Example 23, [3-amino-6-(cyclopenten-1-yl)pyrazolo[3,4-b]pyridin-1-yl]-(2-methoxyphenyl)methanone] | 7.70
COc1ccccc1C(=O)n1nc(N)c2ccc(N3CCC3)nc21 [Example 24, (3-amino-6-(azetidin-1-yl)-1H-pyrazolo[3,4-b]pyridin-1-yl)(2-methoxyphenyl)methanone] | 6.52

Further lines, results first:

pIC50 | SMILES
7.55 | Cc1ccccc1C(=O)n1nc(N)c2ccc([C@H]3C[C@@H]3C)nc21 (racemic) [Example 33, (3-amino-6-((1RS,2RS)-2-methylcyclopropyl)-1H-pyrazolo[3,4-b]pyridin-1-yl)(o-tolyl)methanone]
7.54 | COc1ccccc1C(=O)n1nc(N)c2ccc([C@H]3C[C@@H]3C)nc21 (racemic) [Example 34, (3-amino-6-((1RS,2RS)-2-methylcyclopropyl)-1H-pyridin-3-pyrazolo[3,4-b]pyridin-1-yl)(2-methoxyphenyl)methanone]
7.19 | COc1ccccc1C(=O)n1nc(N)c2ccc([C@H]3C[C@@H]3F)nc21 (racemic) [Example 39, (3-amino-6-((1RS,2SR)-2-fluorocyclopropyl)-1H-pyrazolo[3,4-b]pyridin-1-yl)(2-methoxyphenyl)methanone]
6.70 | COc1ccccc1C(=O)n1nc(N)c2ccc([C@@H]3C[C@H]3C(F)(F)F)nc21 (racemic) [Example 42, [3-amino-6-[(1RS,2RS)-2-(trifluoromethyl)cyclopropyl]pyrazolo[3,4-b]pyridin-1-yl]-(2-methoxyphenyl)methanone]
6.77 | COc1ccccc1C(=O)n1nc(N)c2ccc(N3C[C@@H]4CC[C@H]3C4)nc21 (racemic) [Example 51, [3-amino-6-[(1RS,4SR)-3-azabicyclo[2.2.1]heptan-3-yl]pyrazolo[3,4-b]pyridin-1-yl]-(2-methoxyphenyl)methanone]
7.48 | C[C@H]1C(=O)NCC[C@H]1C(=O)n1nc(N)c2ccc(C3CC3)nc21 (racemic) [Example 59, (3RS,4RS)-4-(3-amino-6-cyclopropylpyrazolo[3,4-b]pyridine-1-carbonyl)-3-methylpiperidin-2-one]
7.44 | C[C@H]1OCC[C@H]1C(=O)n1nc(N)c2ccc(C3CC3)nc21 (racemic) [Example 65, (3-amino-6-cyclopropyl-1H-pyrazolo[3,4-b]pyridin-1-yl)((2SR,3RS)-2-methyltetrahydrofuran-3-methyloxolane-2-yl)methanone]
6.54 | Cc1ccccc1C(=O)n1nc(N)c2ccc(C(F)(F)F)nc21 [Example 25, (3-amino-6-(trifluoromethyl)-1H-pyrazolo[3,4-b]pyridin-1-yl)(o-tolyl)methanone]
6.92 | COc1ccccc1C(=O)n1nc(N)c2ccc(C(F)(F)F)nc21 [Example 26]
7.16 | COc1ccccc1C(=O)n1nc(N)c2ccc(N3CC(F)(F)C3)nc21 [Example 27, (3-amino-6-(3,3-difluoroazetidin-1-yl)-1H-pyrazolo[3,4-b]pyridin-1-yl)(2-methoxyphenyl)methanone]
6.47 | Cc1ccccc1C(=O)n1nc(N)c2ccc(N3CC(F)(F)C3)nc21 [Example 28, (3-amino-6-(3,3-difluoroazetidin-1-yl)-1H-pyrazolo[3,4-b]pyridin-1-yl)(o-tolyl)methanone]
6.32 | Cc1ccccc1C(=O)n1nc(N)c2ccc(C3CCCC3)nc21 [Example 29, (3-amino-6-cyclopentylpyrazolo[3,4-b]pyridin-1-yl)-(2-methylphenyl)methanone]
7.28 | Cc1ccccc1C(=O)n1nc(N)c2ccc(C3=CCCC3)nc21 [Example 30, [3-amino-6-(cyclopenten-1-yl)pyrazolo[3,4-b]pyridin-1-yl]-(2-methylphenyl)methanone]
6.70 | Cc1ccccc1C(=O)n1nc(N)c2ccc(C3CCC3)nc21 [Example 31, (3-amino-6-cyclobutyl-1H-pyrazolo[3,4-b]pyridin-1-yl)(o-tolyl)methanone]
7.23 | COc1ccccc1C(=O)n1nc(N)c2ccc(C3CCC3)nc21 [Example 32]
7.77 | COc1ccccc1C(=O)n1nc(N)c2ccc(C3=CCOC3)nc21 [Example 35, [3-amino-6-(2,5-dihydrofuran-3-yl)pyrazolo[3,4-b]pyridin-1-yl]-(2-methoxyphenyl)methanone]
7.17 | Cc1ccccc1C(=O)n1nc(N)c2ccc(C3=CCOC3)nc21 [Example 36, [3-amino-6-(2,5-dihydrofuran-3-yl)pyrazolo[3,4-b]pyridin-1-yl]-(2-methylyphenyl)methanone]
